# According to patent publication US9708314B2, “Heterocyclic amide compound” (NISSAN CHEMICAL INDUSTRIES, LTD., priority 2013, dated 2017):
# Assays:
# Format in all cases: in vivo
# Leptochloa chinensis = assay: Test Example 3: herbicidal effect by application to foliage (Wagner pot, water depth 0.1-0.5 cm); settings: Nineteenth Table; application to foliage; application herbicide amount 320 g/ha
# Outline: (§1)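 Greenhouse pot test, 25–30 °C, alluvial soil. Sown seedlings grown 14 days then sprayed on leaves and stems with emulsion diluted to target g/ha. Rating at 3 weeks, 0–5 scale (0 ≤5%, 5 ≥90%).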
# [1] = system: Echinochloa crus-galli var. crus-galli; assay: as above; settings: Nineteenth Table; application to foliage; application herbicide amount 320 g/ha
# Outline: as §1
# Avena fatua = assay: Test Example 4: herbicidal effect by application to foliage (diluvial soil, plastic box); settings: for herbicidal effect, I (Avena fatua): 320 g/ha
# Outline: (§2)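 Seeds sown in sterilized diluvial soil, covered ~1.5 cm, grown 14 days in greenhouse at 25° C. to 30° C. Emulsion formulation diluted in water to set rate (g/ha) and sprayed onto stems and leaves. Effect scored visually 3 weeks later on 0–5 scale (5 = ≥90% herbicidal ratio, 0 = ≤5%).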
# Apera spica-venti. = assay: as above; settings: for herbicidal effect, L (Apera spica-venti.): 320 g/ha
# Outline: as §2
# Abutilon theophrasti = assay: as above; settings: for herbicidal effect, M (Abutilon theophrasti): 320 g/ha
# Outline: as §2
# [2] = system: Echinochloa crus-galli var. crus-galli; assay: as above; settings: for herbicidal effect, H (Echinochloa crus-galli var. crus-galli): 320 g/ha
# Outline: as §2
# Digitaria ciliaris = assay: as above; settings: for herbicidal effect, F (Digitaria ciliaris): 320 g/ha
# Outline: as §2
# Chenopodium album = assay: as above; settings: for herbicidal effect, O (Chenopodium album): 320 g/ha
# Outline: as §2
# Alopecurus myosuroides = assay: as above; settings: for herbicidal effect, J (Alopecurus myosuroides): 320 g/ha
# Outline: as §2
# Setaria viridis = assay: as above; settings: for herbicidal effect, G (Setaria viridis): 320 g/ha
# Outline: as §2
# Galium spurium = assay: as above; settings: for herbicidal effect, Q (Galium spurium): 320 g/ha
# Outline: as §2
# Lolium multiflorum Lam. = assay: as above; settings: for herbicidal effect, K (Lolium multiflorum Lam.): 320 g/ha
# Outline: as §2
# Zea mays = assay: Test Example 4: effect on crop by application to foliage (diluvial soil, plastic box); settings: for effect on crop, b (Zea mays): 320 g/ha
# Outline: as §2
# [3] = system: directly sowed Oryza sativa; assay: as above; settings: for effect on crop, d (directly sowed Oryza sativa): 320 g/ha
# Outline: as §2
# Brassica campestris L. = assay: as above; settings: for effect on crop, g (Brassica campestris L.): 320 g/ha
# Outline: as §2
# [4] = system: Beta vulgaris ssp. vulgaris; assay: as above; settings: for effect on crop, f (Beta vulgaris ssp. vulgaris): 320 g/ha
# Outline: as §2
# Triticum aestivum = assay: as above; settings: for effect on crop, e (Triticum aestivum): 320 g/ha
# Outline: as §2
# Glycine max = assay: as above; settings: for effect on crop, c (Glycine max): 320 g/ha
# Outline: as §2
# [5] = application to foliage, application herbicide amount 320 g/ha
# [6] = Application herbicide amount 320 g/ha
# [7] = Application herbicide amount 320 g/ha, effect on crop
SMILES,D (herbicidal effect grade) (Leptochloa chinensis),H (herbicidal effect grade) [1],"herbicidal effect, I (Avena fatua) (Avena fatua; application to foliage)","herbicidal effect, L (Apera spica-venti.) (Apera spica-venti.; application to foliage)","herbicidal effect, M (Abutilon theophrasti) (Abutilon theophrasti; application to foliage)","herbicidal effect, H (Echinochloa crus-galli var. crus-galli) ([2]; application to foliage)","herbicidal effect, F (Digitaria ciliaris) (Digitaria ciliaris; application to foliage)","herbicidal effect, O (Chenopodium album) (Chenopodium album; application to foliage)","herbicidal effect, J (Alopecurus myosuroides) (Alopecurus myosuroides; application to foliage)","herbicidal effect, G (Setaria viridis) (Setaria viridis; application to foliage)","herbicidal effect, Q (Galium spurium) (Galium spurium; application to foliage)","herbicidal effect, K (Lolium multiflorum Lam.) (Lolium multiflorum Lam.; application to foliage)","effect on crop, b (Zea mays) (Zea mays; application to foliage)","effect on crop, d (directly sowed Oryza sativa) ([3]; application to foliage)","effect on crop, g (Brassica campestris L.) (Brassica campestris L.; application to foliage)","effect on crop, f (Beta vulgaris ssp. vulgaris) ([4]; application to foliage)","effect on crop, e (Triticum aestivum) (Triticum aestivum; application to foliage)","effect on crop, c (Glycine max) (Glycine max; application to foliage)",further results
CCSc1nnc2c(C(=O)Nc3nnnn3CCOC)ccc(C(F)(F)F)n12 [2-098],5 (Herbicidal ratio of 90% or more (almost completely withered)),5 (Herbicidal ratio of 90% or more (almost completely withered)),4 (Herbicidal ratio of 70% or more and less than 90%),4 (Herbicidal ratio of 70% or more and less than 90%),4 (Herbicidal ratio of 70% or more and less than 90%),5 (Herbicidal ratio of 90% or more (almost completely withered)),5 (Herbicidal ratio of 90% or more (almost completely withered)),5 (Herbicidal ratio of 90% or more (almost completely withered)),2 (Herbicidal ratio of 20% or more and less than 40%),5 (Herbicidal ratio of 90% or more (almost completely withered)),4 (Herbicidal ratio of 70% or more and less than 90%),3 (Herbicidal ratio of 40% or more and less than 70%),4 (Herbicidal ratio of 70% or more and less than 90%),4 (Herbicidal ratio of 70% or more and less than 90%),4 (Herbicidal ratio of 70% or more and less than 90%),5 (Herbicidal ratio of 90% or more (almost completely withered)),3 (Herbicidal ratio of 40% or more and less than 70%),1 (Herbicidal ratio of 5% or more and less than 20%),
CN(CCC#N)c1nnc2c(C(=O)Nc3nnco3)ccc(C(F)(F)F)n12 [1-164],5 (Herbicidal ratio of 90% or more (almost completely withered)),5 (Herbicidal ratio of 90% or more (almost completely withered)),,,,,,,,,,,,,,,,,"I: herbicidal effect on Avena fatua (Avena fatua; [5]): 3 (Herbicidal ratio of 40% or more and less than 70%); L: herbicidal effect on Apera spica-venti. (Apera spica-venti.; [5]): 3 (Herbicidal ratio of 40% or more and less than 70%); M: herbicidal effect on Abutilon theophrasti (Abutilon theophrasti; [5]): 4 (Herbicidal ratio of 70% or more and less than 90%); H: herbicidal effect on Echinochloa crus-galli var. crus-galli [2, 5]: 5 (Herbicidal ratio of 90% or more (almost completely withered)); F: herbicidal effect on Digitaria ciliaris (Digitaria ciliaris; [5]): 5 (Herbicidal ratio of 90% or more (almost completely withered)); O: herbicidal effect on Chenopodium album (Chenopodium album; [5]): 5 (Herbicidal ratio of 90% or more (almost completely withered)); J: herbicidal effect on Alopecurus myosuroides (Alopecurus myosuroides; [5]): 1 (Herbicidal ratio of 5% or more and less than 20%); G: herbicidal effect on Setaria viridis (Setaria viridis; [5]): 5 (Herbicidal ratio of 90% or more (almost completely withered)); Q: herbicidal effect on Galium spurium (Galium spurium; [5]): 4 (Herbicidal ratio of 70% or more and less than 90%); K: herbicidal effect on Lolium multiflorum Lam. (Lolium multiflorum Lam.; [5]): 1 (Herbicidal ratio of 5% or more and less than 20%); c: effect on crop, Zea mays (Zea mays; [5]): 0 (Herbicidal ratio of 5% or less (almost no effect)); b: effect on crop, directly sowed Oryza sativa [3, 5]: 4 (Herbicidal ratio of 70% or more and less than 90%); g: effect on crop, Brassica campestris L. (Brassica campestris L.; [5]): 4 (Herbicidal ratio of 70% or more and less than 90%); f: effect on crop, Beta vulgaris ssp. vulgaris [4, 5]: 5 (Herbicidal ratio of 90% or more (almost completely withered)); e: effect on crop, Triticum aestivum (Triticum aestivum; [5]): 3 (Herbicidal ratio of 40% or more and less than 70%); d: effect on crop, Glycine max (Glycine max; [5]): 5 (Herbicidal ratio of 90% or more (almost completely withered))"
Cn1nnnc1NC(=O)c1ccc(C(F)(F)F)n2c(SC3CCCC3)nnc12 [2-096],0 (Herbicidal ratio of 5% or less (almost no effect)),0 (Herbicidal ratio of 5% or less (almost no effect)),1 (Herbicidal ratio of 5% or more and less than 20%),0 (Herbicidal ratio of 5% or less (almost no effect)),5 (Herbicidal ratio of 90% or more (almost completely withered)),5 (Herbicidal ratio of 90% or more (almost completely withered)),5 (Herbicidal ratio of 90% or more (almost completely withered)),5 (Herbicidal ratio of 90% or more (almost completely withered)),0 (Herbicidal ratio of 5% or less (almost no effect)),4 (Herbicidal ratio of 70% or more and less than 90%),3 (Herbicidal ratio of 40% or more and less than 70%),0 (Herbicidal ratio of 5% or less (almost no effect)),0 (Herbicidal ratio of 5% or less (almost no effect)),3 (Herbicidal ratio of 40% or more and less than 70%),0 (Herbicidal ratio of 5% or less (almost no effect)),5 (Herbicidal ratio of 90% or more (almost completely withered)),0 (Herbicidal ratio of 5% or less (almost no effect)),0 (Herbicidal ratio of 5% or less (almost no effect)),
Cc1nnc(NC(=O)c2ccc(C(F)(F)F)n3c(CC(=O)NC(C)C)nnc23)o1 [1-061],4 (Herbicidal ratio of 70% or more and less than 90%),5 (Herbicidal ratio of 90% or more (almost completely withered)),,,,,,,,,,,,,,,,,"I (Avena fatua; [6]): 3 (Herbicidal ratio of 40% or more and less than 70%); L (Apera spica-venti.; [6]): 1 (Herbicidal ratio of 5% or more and less than 20%); M (Abutilon theophrasti; [6]): 5 (Herbicidal ratio of 90% or more (almost completely withered)); H [2, 6]: 4 (Herbicidal ratio of 70% or more and less than 90%); F (Digitaria ciliaris; [6]): 3 (Herbicidal ratio of 40% or more and less than 70%); O (Chenopodium album; [6]): 5 (Herbicidal ratio of 90% or more (almost completely withered)); J (Alopecurus myosuroides; [6]): 1 (Herbicidal ratio of 5% or more and less than 20%); G (Setaria viridis; [6]): 3 (Herbicidal ratio of 40% or more and less than 70%); Q (Galium spurium; [6]): 4 (Herbicidal ratio of 70% or more and less than 90%); K (Lolium multiflorum Lam.; [6]): 1 (Herbicidal ratio of 5% or more and less than 20%); b (Zea mays; [7]): 1 (Herbicidal ratio of 5% or more and less than 20%); d [3, 7]: 4 (Herbicidal ratio of 70% or more and less than 90%); g (Brassica campestris L.; [7]): 4 (Herbicidal ratio of 70% or more and less than 90%); f [4, 7]: 4 (Herbicidal ratio of 70% or more and less than 90%); e (Triticum aestivum; [7]): 0 (Herbicidal ratio of 5% or less (almost no effect)); c (Glycine max; [7]): 1 (Herbicidal ratio of 5% or more and less than 20%)"
